# From PubChem BioAssay (NCI)
#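 Following 48 hours of exposure in 96-well plates, responses at five concentrations were used to interpolate endpoints linearly. At the GI50, growth is halved. TGI: total growth inhibition.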
# Tests used:
# Assay in all cases: inhibition of tumour cell growth, NCI panel, 48 h
# NCI-H23 lung = system: NCI-H23 lung
# SNB-19 CNS = system: SNB-19 CNS
# SK-OV-3 ovarian = system: SK-OV-3 ovarian
# HCT-116 colon = system: HCT-116 colon
# SNB-75 CNS = system: SNB-75 CNS
# OVCAR-3 ovarian = system: OVCAR-3 ovarian
# U251 CNS = system: U251 CNS
# ACHN renal = system: ACHN renal
# UO-31 renal = system: UO-31 renal
# DU-145 prostate = system: DU-145 prostate
Compound,TGI (NCI-H23 lung) [µM],TGI (SNB-19 CNS) [µM],TGI (SK-OV-3 ovarian) [µM],TGI (HCT-116 colon) [µM],TGI (SNB-75 CNS) [µM],TGI (OVCAR-3 ovarian) [µM],TGI (U251 CNS) [µM],TGI (ACHN renal) [µM],TGI (UO-31 renal) [µM],GI50 (NCI-H23 lung) [µM],GI50 (SNB-19 CNS) [µM],GI50 (HCT-116 colon) [µM],GI50 (SNB-75 CNS) [µM],GI50 (DU-145 prostate) [µM],TGI (DU-145 prostate) [µM],GI50 (OVCAR-3 ovarian) [µM],GI50 (U251 CNS) [µM],GI50 (ACHN renal) [µM],GI50 (UO-31 renal) [µM],GI50 (SK-OV-3 ovarian) [µM]
CN(C)C(=S)/N=c1\sn(C)/c(=N\C(=S)N(C)C)n1C,> 100,> 100,> 100,> 100,> 100,> 100,> 100,> 100,> 100,–,–,–,–,–,–,–,–,–,–,–
CC(C)(/C=C(\C#N)C(=O)N1CCC[C@@H](n2nc(-c3ccc(Oc4ccccc4)cc3F)c3c(N)ncnc32)C1)N1CCN(C2COC2)CC1,30.9,20.6,–,20.1,20.7,23.2,25.8,17.1,10.6,11,8.09,6.31,5.98,12.3,26.8,10.5,7.35,4.53,2.82,–
CCCCCCCCCCCCCCCC(=O)OCCOCCOCCOCc1ccccc1,> 100,> 100,–,> 100,> 100,> 100,> 100,> 100,–,–,–,–,–,–,–,–,–,–,–,–
C#CC1/C(=C\C(=O)OC)CCCC1O (stereo not drawn),> 100,> 100,> 100,> 100,> 100,> 100,> 100,> 100,> 100,–,–,–,–,–,–,–,–,–,–,–
COCC(OC)C(CC=C(C#N)C#N)OC (stereo not drawn),> 100,> 100,> 100,> 100,–,> 100,> 100,> 100,> 100,–,–,–,–,–,–,–,–,–,–,–
CC(C)C1=Cc2ccc3c(c2C(=O)C1=O)CCCC3(C)C,29.6,31.3,32,3.33,29.3,6.71,27.2,13,13.2,–,–,–,–,–,–,–,–,–,–,–
C/C(N=NC(=S)N1CC2CCC(CC2)C1)=C1\C=CC=CN1O,> 100,> 82.5,> 100,30.5,85.9,–,> 61.4,30.7,43,–,–,–,–,–,> 100,–,–,–,–,–
Nc1ncn([C@@H]2O[C@H](CO)[C@@H](O)[C@H]2O)c(=O)n1,41.1,> 100,5.46,1.71,6.2,3.69,–,16.7,9.97,3.91,4.1,0.322,1.63,0.775,9.34,1.56,–,0.664,1.1,1.14
O=C1N=C2Sc3ccc4ccccc4c3N2C1=O,53.3,45.8,31.6,32.9,40.7,37.1,39.6,82.3,33.3,–,–,–,–,–,–,–,–,–,–,–
N#CC(C(=O)/C(=N\NC(N)=O)C(C#N)c1ccc(Cl)cc1)c1ccc(Cl)cc1 (stereo not drawn),> 100,> 100,> 100,> 100,–,> 100,> 100,> 100,> 100,–,–,–,–,–,–,–,–,–,–,–
COC1C(OC(=S)Nc2ccccc2)c2ccccc2N1C(C)=O (stereo not drawn),> 100,> 100,–,> 100,> 100,> 100,> 100,> 100,> 100,–,–,–,–,–,–,–,–,–,–,–
COc1ccc(CCN(C)C2CCC(C#N)(c3ccc(OC)c(OC)c3)CC2)cc1OC (stereo not drawn),> 100,> 100,> 100,> 100,> 100,> 100,> 100,> 100,> 100,–,–,–,–,–,–,–,–,–,–,–
C=CCCCCC1CCC2CCC(CCCCC=C)N12 (stereo not drawn),–,35.3,–,30.2,43.1,30.2,34.6,28.5,27.4,–,–,–,–,–,–,–,–,–,–,–
COC(=O)/C(=N\NC(N)=S)C(C(=O)OC)C(=O)C(=O)Nc1ccc(C)cc1 (stereo not drawn),> 100,> 100,> 100,> 100,> 100,> 100,> 100,> 100,> 100,–,–,–,–,–,–,–,–,–,–,–
CC(C)(C)c1cc(C(P(=O)(O)O)P(=O)(O)O)cc(C(C)(C)C)c1O,> 100,> 100,> 100,> 100,> 100,> 100,> 100,> 100,> 100,–,–,–,–,–,–,–,–,–,–,–
COc1ccc(OCC(=O)O)c2c1CCCC2=O,> 100,> 100,> 100,> 100,> 100,> 100,> 100,> 100,> 100,–,–,–,–,–,–,–,–,–,–,–
O=C(OC1CCC(=C2SCCCS2)[C@H]1C1SCCCS1)c1ccccc1 (stereo partly drawn),> 100,> 100,> 100,> 100,–,> 100,> 100,> 100,> 100,–,–,–,–,–,–,–,–,–,–,–
Cc1ccc2nc(/C(=C/c3ccc(/C=C(\NC(=O)c4ccccc4)c4nc5ccc(C)cc5[nH]4)c(C)c3)NC(=O)c3ccccc3)[nH]c2c1,45.3,> 100,> 100,39.8,> 100,22,60.2,> 100,30.8,–,–,–,–,–,–,–,–,–,–,–
O=[N+]([O-])c1ccc2occ3c2c1CCC3,> 100,> 100,> 100,> 100,> 100,> 100,> 100,> 100,> 100,–,–,–,–,–,–,–,–,–,–,–
COc1c(O)c2c(=O)cc3c4c5c(cc(=O)c6c(O)c(OC)c(CC(C)O)c(c(c1CC(C)O)c24)c65)OCO3 (stereo not drawn),3.1,7.53,20.4,3.48,7.56,6.63,4.08,5.96,5.45,–,–,–,–,–,–,–,–,–,–,–
O=C(/C(=C/c1ccc(Cl)cc1)c1ccccc1)c1ccccc1,40.5,–,71.7,27.1,69.4,–,33.9,39.5,> 100,–,–,–,–,–,–,–,–,–,–,–
COC(=O)/C(=C/c1ccc(OC)cc1)C(C(=O)O)=C1CCCC1,> 100,> 100,> 100,> 100,> 100,–,> 100,> 100,> 100,–,–,–,–,–,–,–,–,–,–,–
COc1ccc2c(c1OCC(=O)O)C(=O)C(CCC(=O)O)CC2 (stereo not drawn),> 100,> 100,> 100,> 100,> 100,> 100,> 100,> 100,–,–,–,–,–,–,–,–,–,–,–,–
